Patent US8883798B2, “Pyrimidine compounds inhibiting the formation of nitric oxide and prostaglandin E2, method of production thereof and use thereof” (Ustav Organicke Chemie a Biochemie Akademie Ved CR, V.V.I., priority 2011, dated 2014)

Experiments:
[1] = test system: production of nitric oxide (NO); assay: Production of nitric oxide (NO) in cultures of mouse peritoneal cells stimulated with IFN-γ plus LPS (Griess reagent); assay type: cell-based, mice; conditions: substance 50 μmol·l^−1, IFN-g plus LPS, 24 h
Method: (§1) Under in vitro conditions, the effect of the pyrimidine compounds according to this invention was tested in terms of the production of nitric oxide (NO) and in terms of the production of prostaglandin E2 (PGE2) in cultures of the peritoneal cells of mice.
NO is a product of the metabolism of L-arginine, quickly changes to […], which are then measured using the Griess reagent system. Under normal conditions, the production of NO is practically zero. It only occurs after some stimulation. In these experiments, interferon-gamma (IFN-γ) and bacterial lipopolysacharide (LPS) were used as stimulators. The values of NO induced in this way fluctuated in the individual experiments in a range from 52 to 89 μmol·l^−1; for the purposes of comparison between the experiments they were considered as 100%. The production of NO after the application of the substances was expressed in percentage with respect to the control values. (The lower the value, the higher the inhibition effect of the substances on NO production.) IC50 are the concentrations of the substances reducing the production of NO by 50% with respect to the controls.
(§2) Experiments were performed on mice peritoneal cells C57BL/6 (Charles River, Germany—AnLabu).
(§3) NO production was induced using IFN-g (5000 pg/mL) plus LPS (100 pg/mL); evaluated (Griess reagent) after 24 h of the cell cultivation (2×10^6/mL). PGE2 was induced using LPS (10 ng/mL); evaluated (ELISA) following 6 h cultivation of cells (3×10^6/mL). Cell longevity was evaluated using WST-1 (tetrazolium salt), following 24 h cultivation of cells (1×10^6/mL). The values mentioned in the table represent the effects of the substances tested in a concentration of 50 μmol·l^−1.

[2] = test system: production of prostaglandin E2 (PGE2); assay: Production of prostaglandin E2 (PGE2) in cultures of mouse peritoneal cells stimulated with LPS (ELISA kit); assay type: cell-based, mice; conditions: for Production of prostaglandins IC50 (μmol · 1^−1) average value and range of values: Table 3B, 6 h; for Production of prostaglandins in % of the controls: Table 3A, substance 50 μmol·l^−1, 6 h
Method: as §1
The influence on the production of prostaglandin E2 (PGE2) in vitro caused by the activity of the pyrimidine compounds according to the submitted invention was determined in cultures of the peritoneal cells of mice using a commercial kit (R&DSystems). The concentrations of PGE2 after lipopolysacharide (LPS) stimulation reached in the individual experiments values in a range of 22 to 91 ng·ml^−1 and for the purposes of comparison between the experiments were considered as 100%. The influence of the substances on the production of PGE2 was evaluated in percentage with respect to the control values.
as §2, §3

peritoneal cells of mice = assay: Cell viability of mouse peritoneal cells (WST-1 kit); assay type: cell-based; conditions: substance 50 μmol·l^−1, 24 h; for Cell viabilities in % of the controls: Table 3B; for Cell viability in % of the controls: Table 3A
Method: Cell viability was determined in the standard way using a WST-1 kit (Roche). The values of the viability of the control cells were for the purposes of comparison between experiments considered as 100%. The influence of the substances on the longevity of the cells was evaluated in percentage with respect to the control values.
as §2, §3

| SMILES | Production of nitric oxide in % of the controls ([1]; Table 3B) | Production of prostaglandins IC50 (μmol · 1^−1) average value and range of values [2] | Cell viabilities in % of the controls (peritoneal cells of mice) | Production of nitric oxide in % of the controls ([1]; Table 3A) | Production of prostaglandins in % of the controls [2] | Cell viability in % of the controls (peritoneal cells of mice) |
| --- | --- | --- | --- | --- | --- | --- |
| CCCCc1c(-c2ccccc2)nc(N)nc1-c1ccsc1 [Substance 107] | 69.69 ± 6.09; n = 4 % of the controls | 68.07 ± 2.56; n = 4 μmol · 1^−1 | 69.08 ± 1.78; n = 4 % of the controls | – | – | – |
| CCCCc1c(-c2ccccc2)nc(N)nc1-c1ccc(F)cc1 [Substance 69] | 71.24 ± 4.28; n = 4 % of the controls | 75.40 ± 21.62; n = 4 μmol · 1^−1 | 121.04 ± 9.53; n = 4 % of the controls | – | – | – |
| CCCCc1c(-c2cccnc2)nc(N)nc1-c1cccc2ccccc12 [Substance 136] | 70.28 ± 3.71; n = 4 % of the controls | 72.55 ± 19.06; n = 2 μmol · 1^−1 | 111.00 ± 0.97; n = 4 % of the controls | – | – | – |
| CCCCc1c(-c2ccc(OC)cc2)nc(N)nc1-c1ccsc1 [Substance 109] | 73.38 ± 4.58; n = 6 % of the controls | 4.9 ± 1.72; n = 4 μmol · 1^−1 | 120.58 ± 7.53; n = 8 % of the controls | – | – | – |
| CCCCc1c(-c2ccccc2)nc(N)nc1-c1ccccc1 [Substance 67] | 80.37 ± 1.36; n = 4 % of the controls | 76.75 ± 10.63; n = 4 μmol · 1^−1 | 93.60 ± 2.81; n = 4 % of the controls | – | – | – |
| CCCCc1c(-c2ccoc2)nc(N)nc1-c1cccc2ccccc12 [Substance 139] | 70.38 ± 4.95; n = 6 % of the controls | 18.35 ± 3.26; n = 4 μmol · 1^−1 | 104.41 ± 10.83; n = 8 % of the controls | – | – | – |
| CCCCc1c(-c2ccoc2)nc(N)nc1-c1ccoc1 [Substance 105] | 49.07 ± 4.67; n = 4 % of the controls | 50.30 ± 9.52; n = 4 μmol · 1^−1 | 101.86 ± 5.13; n = 4 % of the controls | – | – | – |
| CCCCc1c(-c2ccc(F)cc2)nc(N)nc1-c1ccco1 [Substance 95] | 61.96 ± 6.41; n = 6 % of the controls | 70.79 ± 11.61; n = 4 μmol · 1^−1 | 119.71 ± 4.71; n = 8 % of the controls | – | – | – |
| CC(C)c1c(Cl)nc(N=CN(C)C)nc1Cl [Substance 16] | – | – | – | 7.32 ± 2.68 % of the controls | 32.10 ± 2.31 % of the controls | 134.83 ± 16.51 % of the controls |
| CCCCc1c(-c2ccoc2)nc(N)nc1-c1cc2ccccc2o1 [Substance 123] | 11.15 ± 2.99; n = 6 % of the controls | 35.10 ± 14.56; n = 4 μmol · 1^−1 | 42.62 ± 11.49; n = 12 % of the controls | – | – | – |
| CCCCc1c(-c2ccc(OC)cc2)nc(N)nc1-c1ccoc1 [Substance 104] | 71.20 ± 2.85; n = 6 % of the controls | 57.52 ± 12.44; n = 6 μmol · 1^−1 | 137.10 ± 2.72; n = 12 % of the controls | – | – | – |
| CCCCc1c(-c2ccccc2)nc(N)nc1-c1ccccn1 [Substance 76] | 45.05 ± 3.55; n = 4 % of the controls | 42.94 ± 11.04; n = 6 μmol · 1^−1 | 97.97 ± 5.33; n = 8 % of the controls | – | – | – |
| CCCCc1c(-c2ccncc2)nc(N)nc1-c1cccs1 [Substance 91] | 63.95 ± 2.00; n = 4 % of the controls | 29.01 ± 5.46; n = 4 μmol · 1^−1 | 81.38 ± 6.86; n = 4 % of the controls | – | – | – |
| CCCCc1c(Cl)nc(N)nc1-c1ccc(OC)cc1 [Substance 75] | 15.96 ± 4.83; n = 4 % of the controls | 4.7 ± 1.17; n = 4 μmol · 1^−1 | 86.35 ± 9.29; n = 8 % of the controls | – | – | – |
| CCCCc1c(Cl)nc(N)nc1-c1cccc2ccccc12 [Substance 142] | 43.99 ± 6.06; n = 6 % of the controls | 9.14 ± 2.71; n = 4 μmol · 1^−1 | 114.07 ± 8.00; n = 8 % of the controls | – | – | – |
| CCCCc1c(Cl)nc(N)nc1-c1cccnc1 [Substance 82] | 12.07 ± 2.39; n = 8 % of the controls | 92.02 ± 8.95; n = 4 μmol · 1^−1 | 45.38 ± 2.92; n = 12 % of the controls | – | – | – |
| CCCCc1c(-c2ccccc2)nc(N)nc1-c1ccc(OC)cc1 [Substance 72] | 55.45 ± 12.92; n = 6 % of the controls | 3.61 ± 0.22; n = 4 μmol · 1^−1 | 108.35 ± 5.66; n = 8 % of the controls | – | – | – |
| CCCCc1c(-c2ccc(OC)cc2)nc(N)nc1-c1cccc2ccccc12 [Substance 134] | 33.09 ± 7.25; n = 8 % of the controls | 27.85 ± 10.82; n = 8 μmol · 1^−1 | 93.40 ± 5.59; n = 12 % of the controls | – | – | – |
| CCCc1c(Cl)nc(NC=O)nc1Cl [Substance 50] | – | – | – | 3.95 ± 2.27 % of the controls | 14.20 ± 7.00 % of the controls | 98.59 ± 6.59 % of the controls |
| C=CCc1c(Cl)nc(N)nc1Cl [Substance 32] | – | – | – | 41.72 ± 9.27 % of the controls | 90.81 ± 5.95 % of the controls | 93.55 ± 19.55 % of the controls |
| CCCCc1c(-c2ccccc2)nc(N)nc1-c1ccoc1 [Substance 102] | 68.34 ± 4.63; n = 6 % of the controls | 54.8 ± 10.70; n = 6 μmol · 1^−1 | 110.35 ± 5.69; n = 8 % of the controls | – | – | – |
| CCCCc1c(-c2ccncc2)nc(N)nc1-c1cc2ccccc2s1 [Substance 129] | 63.94 ± 1.84 n = 4 % of the controls | 65.97 ± 25.34; n = 2 μmol · 1^−1 | 85.12 ± 0.76; n = 8 % of the controls | – | – | – |
| Cc1c(Cl)nc(N=CN(C)C)nc1Cl [Substance 13] | – | – | – | 21.39 ± 4.78 % of the controls | 59.98 ± 1.82 % of the controls | 77.29 ± 3.69 % of the controls |
| CCCCc1c(-c2ccccc2)nc(N)nc1-c1ccco1 [Substance 94] | 39.73 ± 5.57; n = 6 % of the controls | 38.84 ± 15.99; n = 4 μmol · 1^−1 | 104.21 ± 14.38; n = 8 % of the controls | – | – | – |
